Test results reported in ChEMBL document CHEMBL1139561, “Biaryl isoxazolinone antibacterial agents” (Bioorg Med Chem Lett, 2005).
Converted amounts (≈) assume the structure as drawn. One block for each compound: values may come before it.

What was measured:
Staphylococcus aureus [1] = assay: Minimum inhibition concentration against Staphylococcus aureus strains in presence of 8% calf serum; assay type: functional
Haemophilus influenzae = assay: Minimum inhibition concentration against Haemophilus influenzae strains; assay type: functional
Staphylococcus aureus [2] = assay: Minimum inhibition concentration against Staphylococcus aureus strains in presence of 2% calf serum; assay type: functional
Staphylococcus aureus [3] = assay: Minimum inhibition concentration against Staphylococcus aureus strains in presence of >32% calf serum; assay type: functional
Staphylococcus aureus [4] = assay: Minimum inhibition concentration against Staphylococcus aureus strains in presence of 1% calf serum; assay type: functional
Staphylococcus aureus [5] = assay: Minimum inhibition concentration against Staphylococcus aureus strains in presence of 16% calf serum; assay type: functional
Staphylococcus aureus [6] = assay: Minimum inhibition concentration against Staphylococcus aureus strains in presence of 0.5% calf serum; assay type: functional
Staphylococcus aureus [7] = assay: Minimum inhibition concentration against Staphylococcus aureus strains in presence of 0.03% calf serum; assay type: functional
Staphylococcus aureus [8] = assay: Minimum inhibition concentration against Staphylococcus aureus strains in presence of 32% calf serum; assay type: functional; details: Staphylococcus aureus
Staphylococcus aureus [9] = assay: Minimum inhibition concentration against Staphylococcus aureus strains in presence of >64% calf serum; assay type: functional
[10] = Minimum inhibition concentration against Haemophilus influenzae strains; range is 2-8 […]; assay type: functional
[11] = Half life for compound in mouse was determined; assay type: ADME; details: in vivo
[12] = Protective dose against Staphylococcus aureus in mice after 8 days of oral b.i.d. administration at 1 and 5 hr per interval (n=10); assay type: functional; details: read-out: PD50
[13] = Area under curve concentration in mouse was determined; assay type: ADME; details: in vivo
[14] = Maximum serum concentration in mouse was determined; assay type: ADME, organism-based
Staphylococcus aureus [15] = assay: Minimum inhibition concentration against Staphylococcus aureus strains in presence of 4% calf serum; assay type: functional
Mus musculus = assay: Protective dose against Staphylococcus aureus in mice after 8 days of oral b.i.d. administration at 1 and 5 h per interval with water as vehicle (n=10); range is 5-6 mg/kg/day; assay type: functional; details: read-out: PD50

SMILES: CC(=O)NCn1cc(-c2ccc(-c3ccc(C(C)=O)cc3)cc2)c(=O)o1
MIC (Staphylococcus aureus [2]): 0.06 µg/mL
MIC (Haemophilus influenzae): 4 µg/mL (≈ 11.4 µM)

SMILES: CC(=O)NCn1cc(-c2ccc(-c3ccc(Oc4ccccc4)cc3)cc2)c(=O)o1
MIC (Staphylococcus aureus [3]): 64 µg/mL
MIC (Haemophilus influenzae): > 32 µg/mL

SMILES: COC(=O)c1ccc(-c2ccc(-c3cn(CNC(C)=O)oc3=O)cc2)cc1
MIC (Staphylococcus aureus [6]): 0.06 µg/mL
MIC (Haemophilus influenzae): > 32 µg/mL

SMILES: COc1cc(-c2ccc(-c3cn(CNC(C)=O)oc3=O)cc2)cc(OC)c1OC
MIC (Staphylococcus aureus [5]): 4 µg/mL
MIC (Haemophilus influenzae): > 32 µg/mL

SMILES: CC(=O)NCn1cc(-c2ccc(-c3ccc(C(F)(F)F)cc3)cc2)c(=O)o1
MIC (Staphylococcus aureus [1]): 0.25 µg/mL
MIC (Haemophilus influenzae): > 32 µg/mL

SMILES: CC(=O)NCn1cc(-c2ccc(-c3ccc(C(=O)O)cc3)cc2)c(=O)o1
half-life [11]: 8.5 min
ED50 [12]: > 50 mg/kg/day
MIC (Staphylococcus aureus [1]): 1 µg/mL
AUC [13]: 0.56 µg/h/mL
Cmax [14]: 1700 ng/mL
MIC (Haemophilus influenzae): 2 µg/mL (≈ 5.68 µM)

SMILES: CC(=O)NCn1cc(-c2ccc(-c3ccc(F)cc3)cc2)c(=O)o1
ED50 [12]: < 5 mg/kg/day
MIC (Staphylococcus aureus [15]): 0.03 µg/mL
MIC (Haemophilus influenzae): 2 µg/mL (≈ 6.13 µM)

SMILES: CC(=O)NCn1cc(-c2ccc(-c3ccoc3)cc2)c(=O)o1
ED50 [12]: > 50 mg/kg/day
MIC (Staphylococcus aureus [15]): 0.125 µg/mL
MIC (Haemophilus influenzae): 4 µg/mL (≈ 13.4 µM)

SMILES: COc1ccc(-c2ccc(-c3cn(CNC(C)=O)oc3=O)cc2)cc1OC
MIC (Staphylococcus aureus [4]): 0.25 µg/mL
MIC (Haemophilus influenzae): 32 µg/mL (≈ 86.9 µM)

SMILES: CC(=O)NCn1cc(-c2ccc(-c3ccc(/C=C/[N+](=O)[O-])cc3)cc2)c(=O)o1
MIC (Staphylococcus aureus [15]): 0.125 µg/mL
MIC (Haemophilus influenzae): 4 µg/mL (≈ 10.5 µM)

SMILES: CC(=O)NCn1cc(-c2ccc(C3=CCN(C(C)=O)CC3)cc2)c(=O)o1
half-life [11]: 6.4 min
ED50 [12]: 9 mg/kg/day
AUC [13]: 1.5 µg/h/mL
Cmax [14]: 2600 ng/mL
MIC (Staphylococcus aureus [6]): 0.25 µg/mL
MIC (Haemophilus influenzae): 2 µg/mL (≈ 5.63 µM)

SMILES: CC(=O)NC[C@H]1CN(c2ccc(N3CCOCC3)c(F)c2)C(=O)O1 [LINEZOLID]
ED50 (Mus musculus): 6 mg/kg/day
MIC (Staphylococcus aureus [2]): 1 µg/mL
MIC (Haemophilus influenzae): 32 µg/mL (≈ 94.9 µM)

The next lines start with the values.

MIC (Staphylococcus aureus [1]): 0.5 µg/mL
MIC (Haemophilus influenzae): 32 µg/mL (≈ 94.6 µM)
SMILES: COc1ccccc1-c1ccc(-c2cn(CNC(C)=O)oc2=O)cc1

MIC (Staphylococcus aureus [4]): 0.03 µg/mL
MIC (Haemophilus influenzae): > 32 µg/mL
SMILES: CC(=O)NCn1cc(-c2ccc(-c3ccc([N+](=O)[O-])cc3)cc2)c(=O)o1

MIC (Staphylococcus aureus [5]): 16 µg/mL
MIC (Haemophilus influenzae): 8 µg/mL (≈ 22.7 µM)
SMILES: CC(=O)NCn1cc(-c2ccc(-c3cccc(C(=O)O)c3)cc2)c(=O)o1

MIC (Staphylococcus aureus [7]): 0.03 µg/mL
MIC (Haemophilus influenzae): 4 µg/mL (≈ 12.7 µM)
SMILES: CC(=O)NCn1cc(-c2ccc(-c3ccsc3)cc2)c(=O)o1

MIC (Haemophilus influenzae): 32 µg/mL (≈ 86.4 µM)
MIC (Staphylococcus aureus [8]): 4 µg/mL
SMILES: CC(=O)NCn1cc(-c2ccc(-c3ccc(C(=O)O)c(F)c3)cc2)c(=O)o1

MIC (Staphylococcus aureus [1]): 4 µg/mL
MIC (Haemophilus influenzae): > 64 µg/mL
SMILES: CC(=O)NCn1cc(-c2ccc(-c3ncn(C)n3)cc2)c(=O)o1

MIC (Staphylococcus aureus [5]): 8 µg/mL
MIC (Haemophilus influenzae): > 64 µg/mL
SMILES: CC(=O)NCn1cc(-c2ccc(-c3ccc[nH]3)cc2)c(=O)o1

MIC (Staphylococcus aureus [5]): 0.5 µg/mL
MIC (Haemophilus influenzae): > 32 µg/mL
SMILES: CSc1ccc(-c2ccc(-c3cn(CNC(C)=O)oc3=O)cc2)cc1

MIC (Staphylococcus aureus [1]): 0.06 µg/mL
MIC (Haemophilus influenzae): > 32 µg/mL
SMILES: CC(=O)NCn1cc(-c2ccc(-c3ccc(Cl)cc3)cc2)c(=O)o1

MIC (Staphylococcus aureus [2]): 0.25 µg/mL
MIC (Haemophilus influenzae): 8 µg/mL (≈ 24.7 µM)
SMILES: CC(=O)NCn1cc(-c2ccc(-c3ccc(C)nc3)cc2)c(=O)o1

MIC (Staphylococcus aureus [9]): 8 µg/mL
MIC (Haemophilus influenzae): > 64 µg/mL
SMILES: CC(=O)NCn1cc(-c2ccc(-c3sccc3CN3CCOCC3)cc2)c(=O)o1

MIC (Staphylococcus aureus [4]): 1 µg/mL
MIC (Haemophilus influenzae): 8 µg/mL (≈ 22.4 µM)
SMILES: CC(=O)NCn1cc(-c2ccc(C3CCN(C(C)=O)CC3)cc2)c(=O)o1

MIC (Staphylococcus aureus [2]): 0.06 µg/mL
MIC (Haemophilus influenzae): 4 µg/mL (≈ 12 µM)
SMILES: CC(=O)NCn1cc(-c2ccc(-c3ccc(C#N)cc3)cc2)c(=O)o1

MIC [10]: 2 µg/mL (≈ 6.36 µM)
MIC (Staphylococcus aureus [1]): 0.25 µg/mL
SMILES: CC(=O)NCn1cc(-c2ccc(-c3cccs3)cc2)c(=O)o1

MIC (Staphylococcus aureus [2]): 0.125 µg/mL
MIC (Haemophilus influenzae): 2 µg/mL (≈ 6.19 µM)
SMILES: CC(=O)NCn1cc(-c2ccc(-c3cccc(N)c3)cc2)c(=O)o1

MIC (Staphylococcus aureus [2]): 1 µg/mL
MIC (Haemophilus influenzae): 32 µg/mL (≈ 101 µM)
SMILES: CC(=O)NCn1cc(-c2ccc(C3CCOCC3)cc2)c(=O)o1

MIC (Staphylococcus aureus [15]): 0.25 µg/mL
MIC (Haemophilus influenzae): 32 µg/mL (≈ 92.9 µM)
SMILES: CC(=O)NCn1cc(-c2ccc(-c3sccc3CO)cc2)c(=O)o1
